The values below are quoted from earlier work in PMC10783161 (RSC Advances, 2024).

The conditions of the data set: biphasic elimination, slower terminal phase.

On to `COc1cc([C@@H]2c3cc4c(cc3[C@@H](O[C@@H]3O[C@@H]5CO[C@@H](C)O[C@H]5[C@H](O)[C@H]3O)[C@H]3COC(=O)[C@H]23)OCO4)cc(OC)c1O` [ETP, etoposide], for which the terminal phase half-life is 4 to 11 h.
